The test system of data set [1] is colon cancer cells (SW480). The note with it: SW480 tumors in nude mice. The method, then:
The experiment was carried out using compound a in this example. Under sterile conditions, a suspension of colon cancer cells (SW480) in logarithmic growth phase (cell concentration was adjusted to 1×10^7/mL with physiological saline) was inoculated subcutaneously to 5 to 6 weeks old balb/c female nude mice on the right rear back, and each nude mice was inoculated at an amount of 0.3 ml, i.e. the number of cells contained was 3×10^6 per each mouse. 10 days later, subcutaneous transplanted tumor of 100-250 mm^3 appeared. The nude mice with tumor were randomly divided into several groups, each containing 6 mice: (1) control group; (2) doxorubicin group; (3) doxorubicin+amifostine; (4) doxorubicin+Celecoxib+intermediate II; (5) doxorubicin+intermediate I+intermediate II; (6) doxorubicin+low-dose compound a (6 mg/kg/day); (7) doxorubicin+high-dose compound a (15 mg/kg/day). Firstly, the following compounds were administered to each group of nude mice with tumor according to the following doses: intermediate I and intermediate II (3 mg/kg/day respectively), amifostine (400 mg/kg/day), Celecoxib (6 mg/kg/day). Except that amifostine was subcutaneously injected (30 minutes before irradiation), the other protective agents were administered by gavage. The above drugs were administered every day for 5 weeks continuously. 12 hours after the administration, doxorubicin (2.5 mg/kg) was injected intraperitoneally, and it was administered once every 2 days for 5 weeks. During the dosing period, the body weight of the nude mice was measured every two days with a precision electronic balance. The growth of the tumor and whether or not red and swelling and rupture occur were observed every day after inoculation. After tumor formation, the surface morphology and activity of the transplanted tumor were examined, and the longest diameter (a) and the shortest diameter (b) of the tumor nodules were measured every 3 days with a vernier caliper. […] 21 days after administration of doxorubicin, the tail vein blood of mice was collected to perform leukocyte count and blood biochemical index analysis. The tumor tissue and normal peripheral tissues were taken on the last day of treatment, and the content of the intermediate I therein was measured by HPLC (FIG. 9a). At the same time, paraffin sections were made, the occurrence of apoptosis was detected by terminal labeling (FIG. 9b), and the relative survival percentages of normal tissue and tumor tissue were calculated (the results are summarized in FIG. 9b).

In a further data set the test system is SW480 cells. As to the kind of experiment: Measurement of cellular uptake of compounds (HPLC of intermediate I). The data set is classed as in vitro ADME. Conditions: 10 μM.
Another data set deals with gastric mucosa. Description: Ulcer induction in rats after gavage (lesions of the gastric mucosa). The class given is in vivo.

Data on 1 compound can be found in patent US10494341B2, “Compound containing indoleacetic acid core structure and use thereof” (Beijing An Jian Xi Bio-Medical Technology Co., Ltd., priority 2015, dated 2019).

For `COc1ccc2c(c1)c(CC(=O)O)c(C)n2C(=O)c1ccc(Cl)cc1` [intermediate I, reference compound], in data set [1] (doxorubicin 2.5 mg/kg i.p. every 2 days for 5 weeks, agents daily), the “effect on tumor / on sensitivity of tumor to doxorubicin” value is given as “can also enhance the sensitivity of the tumor to Doxorubicin”. In addition, the “death of animals during treatment” value in data set [1] (doxorubicin 2.5 mg/kg i.p., 6 mice per group) was “die of gastrointestinal bleeding”. Further, the “uptake by cells” value with SW480 cells was “difficult to be efficiently taken up by the cells”. The prevalence of ulcer with gastric mucosa (gavage three times, 10 μM) is recorded as 0/6; in the data set with gastric mucosa (gavage three times, 30 μM) it was 2/6; in the data set on gastric mucosa (gavage three times, 90 μM), 6/6. This compound displayed a Ulcer index in the data set on gastric mucosa (gavage three times, Dose 90 μM/kg, 12 hours after last gavage) of 72.8 ± 6.82. Moreover, in the data set with gastric mucosa (gavage, high concentration (90 μM)), the “ulcer at high concentration” value is recorded as “very serious ulcer”.
